This test relates to NF-κ B. Kind of test: Inhibitory activity of NF-κ B activation, luciferase reporter assay in HepG2 under TNF-α stimulation. Type of test: cell-based, human. Particulars: HepG2, TNF-α (40 ng/ml), 4 hours; for inhibition at 1 µg/mL / inhibition at 10 µg/mL: Homo sapiens; for inhibition at 1 µg/mL / Inhibitory Ratio of NF-κ B Activation(%) Drug Concentration 1 μg/mL: 1 μg/mL; for inhibition at 1 µg/mL: read-out: Inhibitory Ratio of NF-κ B Activation(%) Drug Concentration 1 μg/mL; for inhibition at 10 µg/mL / Inhibitory Ratio of NF-κ B Activation(%) Drug Concentration 10 μg/mL: 10 μg/mL; for inhibition at 10 µg/mL: read-out: Inhibitory Ratio of NF-κ B Activation(%) Drug Concentration 10 μg/mL. In outline:
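Readout is firefly luciferase luminescence, expressed as inhibition versus compound-free wells. Before this, HepG2 cells carrying a transiently transfected 5×NF-κB-site luciferase plasmid (6–24 h post-transfection) received test compound plus TNF-α (40 ng/ml) for 4 h.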
(In general: In a reporter assay the amount or activity of a reporter protein is the signal.)

Consider `CC(C)(C)c1nc(NC(=O)c2cc(Br)ccc2O)sc1Br` [Compound No. 186, 5-Bromo-N-{5-bromo-4-[(1,1-dimethyl)ethyl]thiazol-2-yl}-2-hydroxybenzamide], for which the inhibition at 1 µg/mL stood at 96.5% and the inhibition at 10 µg/mL was determined as 98.7%.
With `CC(C)(C)c1nc(NC(=O)c2cc(Cl)ccc2O)sc1C#N` [Compound No. 188, 5-Chloro-N-{5-cyano-4-[(1,1-dimethyl)ethyl]thiazol-2-yl)-2-hydroxybenzamide], the inhibition at 1 µg/mL came out at 92.6% and the inhibition at 10 µg/mL came out at 92.4%.
For the molecule `CC(C)(C)c1nc(NC(=O)c2cc(Br)ccc2O)sc1C#N` [Compound No. 189], the “Inhibitory Ratio of NF-κ B Activation(%) Drug Concentration 1 μg/mL” value was 20.0% and the “Inhibitory Ratio of NF-κ B Activation(%) Drug Concentration 10 μg/mL” value is reported as 93.8%.
For the molecule `Cc1cnc(NC(=O)c2cc(Br)ccc2O)s1` [Compound No. 190], the “Inhibitory Ratio of NF-κ B Activation(%) Drug Concentration 10 μg/mL” value is 69.7%.
On to `Cc1nc(NC(=O)c2cc(Br)ccc2O)sc1C` [Compound No. 191], for which the “Inhibitory Ratio of NF-κ B Activation(%) Drug Concentration 10 μg/mL” value stood at 67.2%.
Consider `Cc1sc(NC(=O)c2cc(Br)ccc2O)nc1-c1ccccc1` [Compound No. 192], for which the “Inhibitory Ratio of NF-κ B Activation(%) Drug Concentration 1 μg/mL” value was found to be 83.6% and the “Inhibitory Ratio of NF-κ B Activation(%) Drug Concentration 10 μg/mL” value is 94.4%.
On to `Cc1nc(NC(=O)c2cc(Br)ccc2O)sc1-c1ccc(F)cc1` [Compound No. 193, 5-Bromo-N-[4-methyl-5-(4-fluorophenyl)thiazol-2-yl]-2-hydroxybenzamide], for which the inhibition at 10 µg/mL amounted to 82%.
As to `Cc1nc(NC(=O)c2cc(Br)ccc2O)sc1-c1cccc(C(F)(F)F)c1` [Compound No. 194, 5-Bromo-N-{4-methyl-5-[3-(trifluoromethyl)phenyl]thiazol-2-yl}-2-hydroxybenzamide], the inhibition at 10 µg/mL turned out to be 71.7%.
Regarding `CCc1sc(NC(=O)c2cc(Br)ccc2O)nc1C(C)(C)C` [Compound No. 195, 5-Bromo-N-{4-[(1,1-dimethyl)ethyl]-5-ethylthiazol-2-yl}-2-hydroxybenzamide], the inhibition at 1 µg/mL worked out at 90.5% and the inhibition at 10 µg/mL came out at 98.1%.
For the molecule `CCc1nc(NC(=O)c2cc(Br)ccc2O)sc1-c1ccccc1` [Compound No. 196], the “Inhibitory Ratio of NF-κ B Activation(%) Drug Concentration 1 μg/mL” value was 28.8% and the “Inhibitory Ratio of NF-κ B Activation(%) Drug Concentration 10 μg/mL” value was determined as 87.6%.
On to `CC(C)c1nc(NC(=O)c2cc(Br)ccc2O)sc1-c1ccccc1` [Compound No. 197, 5-Bromo-N-(4-isopropyl-5-phenylthiazol-2-yl)-2-hydroxybenzamide], for which the inhibition at 1 µg/mL amounted to 70.1% and the inhibition at 10 µg/mL was 96.1%.
With `CCCCc1nc(NC(=O)c2cc(Br)ccc2O)sc1-c1ccccc1` [Compound No. 198, 5-Bromo-N-(4-butyl-5-phenylthiazol-2-yl)-2-hydroxybenzamide], the inhibition at 1 µg/mL came to 46.1% and the inhibition at 10 µg/mL worked out at 88.7%.
For the molecule `CC(=O)Oc1ccc(Cl)cc1C(=O)Nc1nc(C(C)(C)C)c(C(=O)C(C)(C)C)s1` [Compound No. 200], the “Inhibitory Ratio of NF-κ B Activation(%) Drug Concentration 1 μg/mL” value is 95.0% and the “Inhibitory Ratio of NF-κ B Activation(%) Drug Concentration 10 μg/mL” value came to 97.7%.
Regarding `CCOC(=O)c1sc(NC(=O)c2cc(Br)ccc2O)nc1C(C)(C)C` [Compound No. 202, 2-(5-Bromo-2-hydroxybenzoyl)amino-4-[(1,1-dimethyl)ethyl]thiazole-5-carboxylic acid ethyl ester], the inhibition at 1 µg/mL worked out at 84.5% and the inhibition at 10 µg/mL was 92.4%.
For `CC(C)(C)c1nc(NC(=O)c2cc(Br)ccc2O)sc1N1CCCCC1` [Compound No. 204, 5-Bromo-N-{4-[(1,1-dimethyl)ethyl]-5-piperidinothiazol-2-yl)-2-hydroxybenzamide], the inhibition at 1 µg/mL stood at 93.6% and the inhibition at 10 µg/mL was 97.8%.
Consider `CC(C)(C)c1nc(NC(=O)c2cc(Br)ccc2O)sc1N1CCOCC1` [Compound No. 205, 5-Bromo-N-{4-[(1,1-dimethyl)ethyl]-5-morpholinothiazol-2-yl}-2-hydroxybenzamide], for which the inhibition at 1 µg/mL was found to be 87.8% and the inhibition at 10 µg/mL is 96.8%.
Turning to `CN1CCN(c2sc(NC(=O)c3cc(Br)ccc3O)nc2C(C)(C)C)CC1` [Compound No. 206, 5-Bromo-N-{4-[(1,1-dimethyl)ethyl]-5-(4-methylpiperazin-1-yl)thiazol-2-yl)-2-hydroxybenzamide], the inhibition at 1 µg/mL was 36.3% and the inhibition at 10 µg/mL worked out at 89.6%.
In the case of `O=C(Nc1nc(-c2ccccc2)cs1)c1cc(Br)ccc1O` [Compound No. 208], the “Inhibitory Ratio of NF-κ B Activation(%) Drug Concentration 10 μg/mL” value was found to be 78.8%.
Still for that read-out and setting: for `O=C(O)Cc1sc(NC(=O)c2cc(Br)ccc2O)nc1-c1ccccc1` [Compound No. 210] the value was 72.1%.
On the same count and under the same terms, for `O=C(Nc1nc(-c2ccccc2)c(-c2ccccc2)s1)c1cc(Br)ccc1O` [Compound No. 211] the value was 67.0%.
With `O=C(Nc1nc(Cc2ccccc2)c(-c2ccccc2)s1)c1cc(Br)ccc1O` [Compound No. 212], the “Inhibitory Ratio of NF-κ B Activation(%) Drug Concentration 1 μg/mL” value is on record as 79.7% and the “Inhibitory Ratio of NF-κ B Activation(%) Drug Concentration 10 μg/mL” value is 95.0%.
Consider `O=C(Nc1nc(C(F)(F)F)c(-c2ccccc2)s1)c1cc(Br)ccc1O` [Compound No. 213], for which the “Inhibitory Ratio of NF-κ B Activation(%) Drug Concentration 1 μg/mL” value amounted to 85.1% and the “Inhibitory Ratio of NF-κ B Activation(%) Drug Concentration 10 μg/mL” value turned out to be 89.4%.
Regarding `CC(=O)c1sc(NC(=O)c2cc(Br)ccc2O)nc1-c1ccccc1` [Compound No. 214, 5-Bromo-N-(5-acetyl-4-phenylthiazol-2-yl)-2-hydroxybenzamide], the inhibition at 1 µg/mL was determined as 70.2% and the inhibition at 10 µg/mL amounted to 95.9%.
Taken in the same sequence, the figures for `O=C(Nc1nc(-c2ccccc2)c(C(=O)c2ccccc2)s1)c1cc(Br)ccc1O` [Compound No. 215, 5-Bromo-N-(5-benzoyl-4-phenylthiazol-2-yl)-2-hydroxybenzamide] were 90.7% and 97.3%.
Taken in the same sequence, the figures for `CCOC(=O)c1sc(NC(=O)c2cc(Br)ccc2O)nc1-c1ccccc1` [Compound No. 216, 2-(5-bromo-2-hydroxybenzoyl)amino-4-phenylthiazole-5-carboxylic acid ethyl ester] were 55.8% and 82.8%.
In the case of `CCOC(=O)c1sc(NC(=O)c2cc(Cl)ccc2O)nc1-c1ccccc1` [Compound No. 218], the “Inhibitory Ratio of NF-κ B Activation(%) Drug Concentration 1 μg/mL” value is given as 80.7% and the “Inhibitory Ratio of NF-κ B Activation(%) Drug Concentration 10 μg/mL” value is listed as 94.2%.
As for `CCOC(=O)c1sc(NC(=O)c2cc(Br)ccc2O)nc1-c1c(F)c(F)c(F)c(F)c1F` [Compound No. 219, Ethyl 2-(5-bromo-2-hydroxybenzoyl)amino-4-(pentafluorophenyl)thiazole-5-carboxylate], the inhibition at 1 µg/mL amounted to 82.2% and the inhibition at 10 µg/mL was 96%.
On to `CNC(=O)c1sc(NC(=O)c2cc(Br)ccc2O)nc1-c1ccccc1` [Compound No. 220], for which the “Inhibitory Ratio of NF-κ B Activation(%) Drug Concentration 1 μg/mL” value is on record as 50.8% and the “Inhibitory Ratio of NF-κ B Activation(%) Drug Concentration 10 μg/mL” value is on record as 58.6%.
Taken in the same sequence, the figures for `CCNC(=O)c1sc(NC(=O)c2cc(Br)ccc2O)nc1-c1ccccc1` [Compound No. 221] were 51.9% and 84.0%.

The record behind these values is patent publication US20060089395A1, “Nf-kb activation inhibitors” (priority 2002, published 2006).
